From article PMC4076210, “Discovery of Novel AKT Inhibitors with Enhanced Anti-Tumor Effects in Combination with the MEK Inhibitor” (PLoS ONE, 2014)
Like-named read-outs stand apart in the source and are kept apart here.

Columns and labels:
Experiment in all cases: Kinase panel
Type in all cases: biochemical
CDK1/cyclinB(h) = target: T1, CDK1/cyclinB(h) (Homo sapiens, UniProt P06493)
T1 construct: purchased Millipore KinaseProfiler

Haspin(h) = target: T2, Haspin(h) (Homo sapiens, UniProt Q8TF76)
T2 construct: purchased Millipore KinaseProfiler
T2 sequence (Q8TF76 1-798): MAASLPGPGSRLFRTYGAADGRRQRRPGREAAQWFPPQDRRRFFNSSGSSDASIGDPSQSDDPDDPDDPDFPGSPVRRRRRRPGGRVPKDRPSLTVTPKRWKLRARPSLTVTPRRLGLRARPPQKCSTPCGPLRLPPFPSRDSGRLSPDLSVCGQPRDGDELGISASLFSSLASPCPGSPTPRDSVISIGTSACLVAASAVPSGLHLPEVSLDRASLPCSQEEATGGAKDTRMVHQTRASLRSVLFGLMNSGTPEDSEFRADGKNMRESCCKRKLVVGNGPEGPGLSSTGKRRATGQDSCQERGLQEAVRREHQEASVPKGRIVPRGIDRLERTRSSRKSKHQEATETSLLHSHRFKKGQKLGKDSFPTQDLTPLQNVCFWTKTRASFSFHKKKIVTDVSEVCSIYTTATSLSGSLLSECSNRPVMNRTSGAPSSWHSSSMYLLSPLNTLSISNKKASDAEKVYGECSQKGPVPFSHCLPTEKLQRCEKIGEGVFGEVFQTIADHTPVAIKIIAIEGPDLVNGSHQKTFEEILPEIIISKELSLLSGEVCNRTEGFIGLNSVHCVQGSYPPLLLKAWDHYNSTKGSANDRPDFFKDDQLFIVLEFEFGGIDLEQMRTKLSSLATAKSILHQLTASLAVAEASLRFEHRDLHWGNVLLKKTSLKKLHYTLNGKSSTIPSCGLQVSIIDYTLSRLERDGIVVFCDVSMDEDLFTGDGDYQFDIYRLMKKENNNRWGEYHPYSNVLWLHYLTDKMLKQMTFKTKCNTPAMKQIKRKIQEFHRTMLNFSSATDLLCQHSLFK

PKCε(h) = target: T3, PKCε(h) (Homo sapiens, UniProt Q02156)
T3 construct: purchased Millipore KinaseProfiler
T3 sequence (Q02156 1-737): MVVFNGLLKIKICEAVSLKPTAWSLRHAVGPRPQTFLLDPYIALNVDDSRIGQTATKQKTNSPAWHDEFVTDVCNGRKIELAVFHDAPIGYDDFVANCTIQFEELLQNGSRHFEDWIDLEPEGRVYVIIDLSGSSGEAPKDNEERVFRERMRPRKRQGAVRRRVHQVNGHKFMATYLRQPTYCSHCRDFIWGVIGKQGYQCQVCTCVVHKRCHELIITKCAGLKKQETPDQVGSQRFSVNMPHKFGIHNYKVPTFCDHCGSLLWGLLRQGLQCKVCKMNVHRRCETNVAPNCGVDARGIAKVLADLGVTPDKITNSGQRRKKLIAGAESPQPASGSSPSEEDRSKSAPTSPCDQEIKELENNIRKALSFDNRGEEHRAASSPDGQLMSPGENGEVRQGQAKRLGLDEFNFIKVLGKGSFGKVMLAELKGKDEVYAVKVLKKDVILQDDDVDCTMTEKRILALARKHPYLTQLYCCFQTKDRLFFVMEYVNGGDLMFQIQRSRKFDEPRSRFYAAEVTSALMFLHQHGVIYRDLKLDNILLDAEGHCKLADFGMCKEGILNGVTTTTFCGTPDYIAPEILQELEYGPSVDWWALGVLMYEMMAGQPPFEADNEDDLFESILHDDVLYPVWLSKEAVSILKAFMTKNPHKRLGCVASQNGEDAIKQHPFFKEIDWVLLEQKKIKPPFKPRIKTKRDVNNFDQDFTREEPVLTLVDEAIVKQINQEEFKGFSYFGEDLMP

Abl(T315I)(h) = target: T4, Abl(T315I)(h) (Homo sapiens, UniProt P00519, T315I)
T4 construct: purchased Millipore KinaseProfiler

T1 sequence (P06493 whole entry): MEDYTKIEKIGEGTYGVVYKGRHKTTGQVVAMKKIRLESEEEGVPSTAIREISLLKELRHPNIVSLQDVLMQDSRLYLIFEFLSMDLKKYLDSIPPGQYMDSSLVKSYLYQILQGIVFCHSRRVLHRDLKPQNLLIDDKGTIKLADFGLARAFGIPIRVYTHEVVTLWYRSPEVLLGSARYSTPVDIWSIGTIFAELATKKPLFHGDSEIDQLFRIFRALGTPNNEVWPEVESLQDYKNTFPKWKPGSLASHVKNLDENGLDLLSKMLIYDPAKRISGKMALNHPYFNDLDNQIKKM
T1 sequence (P14635 whole entry partner): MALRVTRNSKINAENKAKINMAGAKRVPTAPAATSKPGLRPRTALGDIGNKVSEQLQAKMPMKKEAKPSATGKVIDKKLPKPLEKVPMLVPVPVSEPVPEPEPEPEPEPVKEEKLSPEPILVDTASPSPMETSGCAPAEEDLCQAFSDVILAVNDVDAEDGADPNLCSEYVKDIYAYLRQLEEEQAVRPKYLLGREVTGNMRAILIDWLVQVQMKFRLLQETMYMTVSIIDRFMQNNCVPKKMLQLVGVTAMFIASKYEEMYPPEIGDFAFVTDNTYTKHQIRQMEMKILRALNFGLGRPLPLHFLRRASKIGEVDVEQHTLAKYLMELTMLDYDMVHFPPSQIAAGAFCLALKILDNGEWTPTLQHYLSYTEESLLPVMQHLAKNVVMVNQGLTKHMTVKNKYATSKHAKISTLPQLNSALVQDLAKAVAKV

In the case of `Cn1ncc(Cl)c1-c1cc(C(=O)N[C@H](CN)Cc2cccc(F)c2)sc1Cl` [GSK2110183], the inhibition at 0.5 µM (CDK1/cyclinB(h)) is reported as -3%, the inhibition at 10 µM (CDK1/cyclinB(h)) is reported as 7% and the inhibition at 0.5 µM (Haspin(h)) is reported as 46%. The inhibition at 10 µM (Haspin(h)) was 90%, the inhibition at 0.5 µM (PKCε(h)) was 19% and the inhibition at 10 µM (PKCε(h)) was 80%. The inhibition at 0.5 µM (Abl(T315I)(h)) was -1% and the inhibition at 10 µM (Abl(T315I)(h)) was 6%.

Work on `Cn1ncc(Cl)c1-c1cc(C(=O)N[C@H](CN)Cc2ccc(F)c(F)c2)oc1Cl` [GSK2141795] yielded an inhibition at 0.5 µM (CDK1/cyclinB(h); 0.5 µM, read-out: % Inhibition) of -5%, an inhibition at 10 µM (CDK1/cyclinB(h); 10 µM, read-out: % Inhibition) of 12% and an inhibition at 0.5 µM (Haspin(h); 0.5 µM, read-out: % Inhibition) of 76%. It also gave an inhibition at 10 µM (Haspin(h); 10 µM, read-out: % Inhibition) of 101%, an inhibition at 0.5 µM (PKCε(h); 0.5 µM, read-out: % Inhibition) of 32% and an inhibition at 10 µM (PKCε(h); 10 µM, read-out: % Inhibition) of 81%. For the same compound, the inhibition at 0.5 µM (Abl(T315I)(h); 0.5 µM, read-out: % Inhibition) was -2% and the inhibition at 10 µM (Abl(T315I)(h); 10 µM, read-out: % Inhibition) was -2%.
